The source of these data is PubChem BioAssay (NCI).

Each structure is given as a SMILES string. Several values for one entry are separate records, joined by “and”; a condition that tells them apart may be missing. Equal entries are not always repeated.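 Method: 48-hour compound exposure of cells in 96-well plates, five concentrations, linear interpolation of endpoints. Here, GI50 denotes the concentration required for 50% inhibition of growth. TGI: concentration producing complete growth inhibition.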

Test systems include MDA-MB-231 breast; NCI-H226 lung; PC-3 prostate; SR leukemia; DU-145 prostate; NCI-H23 lung; HL-60(TB) leukemia; HS 578T breast; UO-31 renal; HCC-2998 colon.
Assay in all cases: NCI anticancer screen, dose series, 48 h

As to `C/C(=N\O)[C@H]1CC[C@@]2(C)[C@@H]3CC[C@H]4C(C)(C)/C(=N/O)CC[C@@]45CC35CC[C@]12C` (some centres not stated), the GI50 in the assay with MDA-MB-231 breast is 7.46 µM; in the assay on NCI-H226 lung it was 5.03 µM; in the assay on PC-3 prostate it was 2.33 µM; with SR leukemia, 1.85 µM; with DU-145 prostate it was 2.85 µM; in the assay on NCI-H23 lung it was 4.96 µM. Besides, the results for the GI50 in the assay with HL-60(TB) leukemia and in the assay with HS 578T breast were 1.62 µM and 2.23 µM, respectively. Moreover, the TGI is above 16.7 µM in the assay with MDA-MB-231 breast; above 16.7 µM with NCI-H226 lung; 6.9 µM with PC-3 prostate; above 16.7 µM with SR leukemia; 6.2 µM with DU-145 prostate; above 16.7 µM with NCI-H23 lung. The TGI in the assay with HL-60(TB) leukemia is above 16.7 µM; in the assay with HS 578T breast, 7.54 µM.

As for `CC(C)(C)OC(=O)n1c(Cl)c(C(=O)N=C=S)c2ccccc21`, the GI50 was 18.5 µM in the assay with UO-31 renal; 15.7 µM in the assay on MDA-MB-231 breast; above 100 µM in the assay on NCI-H226 lung; 24.2 µM in the assay on PC-3 prostate; 38.9 µM in the assay on HCC-2998 colon; 36 µM in the assay on DU-145 prostate. Besides, the GI50 in the assay on NCI-H23 lung was 28.4 µM; with HL-60(TB) leukemia, 24.4 µM; in the assay on HS 578T breast, 25.5 µM. For the same compound, the TGI in the assay on UO-31 renal is 35.8 µM; in the assay with MDA-MB-231 breast it was 46 µM; in the assay on NCI-H226 lung, above 100 µM; with PC-3 prostate, above 100 µM; in the assay with HCC-2998 colon it was above 100 µM; in the assay on DU-145 prostate it was above 100 µM. The TGI with NCI-H23 lung is above 100 µM; in the assay with HL-60(TB) leukemia it was above 100 µM; in the assay with HS 578T breast it was 68.2 µM.

As for `N#CC1=C(N)Oc2c(sc3c(Br)cccc23)C1c1ccc(F)cc1` (configuration not stated), the GI50 is 0.515 µM in the assay on UO-31 renal; 0.824 µM with MDA-MB-231 breast; 0.405 µM in the assay on PC-3 prostate; 0.797 µM with HCC-2998 colon; 0.241 µM in the assay on SR leukemia; 0.333 µM with DU-145 prostate. Besides, the figures for the GI50 in the assay with NCI-H23 lung, with HL-60(TB) leukemia and in the assay with HS 578T breast were 0.416 µM, 0.204 µM and 0.851 µM, respectively. Moreover, the TGI amounted to 20.1 µM with UO-31 renal; 15.9 µM in the assay with MDA-MB-231 breast; 18.1 µM in the assay on PC-3 prostate; 10.1 µM in the assay with HCC-2998 colon; 11.9 µM in the assay on SR leukemia; 10.6 µM in the assay on DU-145 prostate. Moreover, the TGI with NCI-H23 lung amounted to 17.9 µM; in the assay with HL-60(TB) leukemia it was 1.02 µM; with HS 578T breast, 52.7 µM.

On to `O=C1c2c(O)ccc(O)c2C(=O)c2c(NCCNCCO)ccc(NCCNCCO)c21`, for which the TGI in the assay on UO-31 renal was 0.835 µM and 0.668 µM and 2.55 µM; in the assay on MDA-MB-231 breast, 1.45 µM and 2.38 µM and 1.11 µM; in the assay on NCI-H226 lung, 0.0547 µM and 0.1 µM and 0.136 µM; in the assay on PC-3 prostate it was 1.29 µM and 1.45 µM and 1.55 µM; with HCC-2998 colon, 1.04 µM and 0.795 µM and 0.908 µM; in the assay with SR leukemia, 0.102 µM and 0.389 µM and 0.865 µM. Moreover, the TGI with DU-145 prostate is 0.0832 µM and 0.465 µM and 0.31 µM; with HS 578T breast, 0.296 µM and 1.88 µM and 1.03 µM. Further, the GI50 in the assay on SR leukemia was below 0.005 µM; in the assay on HL-60(TB) leukemia, 0.0127 µM.

Regarding `COc1ccc(C2NC(=S)NC3=C2COc2ccc(F)cc23)cc1OC` (configuration not stated), the GI50 was 39.2 µM in the assay on UO-31 renal; 8.37 µM with MDA-MB-231 breast; 16.3 µM in the assay on NCI-H226 lung; 14.2 µM with PC-3 prostate; 50.8 µM with SR leukemia; 33.2 µM in the assay on DU-145 prostate. The GI50 in the assay on NCI-H23 lung was 14.1 µM; in the assay on HL-60(TB) leukemia it was 18.5 µM; in the assay with HS 578T breast, 7.75 µM. The TGI is above 100 µM in the assay with UO-31 renal; 53.5 µM with MDA-MB-231 breast; 70.4 µM in the assay on NCI-H226 lung; 87.9 µM in the assay with PC-3 prostate; above 100 µM in the assay with SR leukemia; above 100 µM in the assay with DU-145 prostate. Moreover, the TGI in the assay with NCI-H23 lung turned out to be 34.2 µM; in the assay with HL-60(TB) leukemia it was 50.7 µM; in the assay with HS 578T breast, 38.1 µM.

Consider `Cc1cc2c(-c3nc4ccccn4c3NC34CC5CC(CC(C5)C3)C4)c(O)c(O)cc2c(O)c1-c1c(C)cc2c(-c3nc4ccccn4c3NC34CC5CC(CC(C5)C3)C4)c(O)c(O)cc2c1O`, for which the GI50 in the assay with UO-31 renal was 0.657 µM; in the assay on MDA-MB-231 breast, 0.763 µM; with NCI-H226 lung, 0.929 µM; in the assay with PC-3 prostate, 0.231 µM; with HCC-2998 colon, 1.13 µM; in the assay on SR leukemia it was 0.854 µM. Further, the GI50 was 0.137 µM with NCI-H23 lung, 0.789 µM with HL-60(TB) leukemia and 0.85 µM in the assay with HS 578T breast. In addition, the TGI with UO-31 renal is 4.16 µM; in the assay with MDA-MB-231 breast it was 11.4 µM; with NCI-H226 lung, 5.98 µM; in the assay on PC-3 prostate, 11.9 µM; in the assay with HCC-2998 colon, above 25 µM; with SR leukemia it was 4.86 µM. The TGI in the assay on NCI-H23 lung is 3.09 µM; with HL-60(TB) leukemia it was 11.5 µM; in the assay with HS 578T breast, 16.2 µM.

Consider `O=c1c2ccccc2c(=O)c2c1sc1c(=O)c3ccc(O)cc3c(=O)c12`, for which the GI50 was 0.644 µM with UO-31 renal; 1.72 µM with MDA-MB-231 breast; 1.08 µM in the assay with SR leukemia; 0.174 µM with DU-145 prostate; 0.181 µM in the assay with NCI-H23 lung; 2.38 µM in the assay on HL-60(TB) leukemia. In addition, the GI50 with HS 578T breast is 0.33 µM. The TGI is 2.82 µM in the assay on UO-31 renal; 8.19 µM with MDA-MB-231 breast; above 100 µM in the assay with SR leukemia; 0.312 µM in the assay on DU-145 prostate; 0.505 µM in the assay on NCI-H23 lung; 9.77 µM in the assay with HL-60(TB) leukemia. The compound also came in with a TGI with HS 578T breast of 0.973 µM.

Turning to `C/C(N=NC(=S)N1CCCCCC1)=C1\C=CC=CN1O`, the TGI was above 100 µM with UO-31 renal; above 100 µM in the assay on MDA-MB-231 breast; above 90.3 µM with NCI-H226 lung; above 100 µM with HCC-2998 colon; above 100 µM with SR leukemia; above 100 µM with DU-145 prostate. Also, the results for the TGI in the assay on NCI-H23 lung, with HL-60(TB) leukemia and with HS 578T breast were above 56.2 µM, 1.74 µM and above 100 µM, respectively.

For `Fc1ccc(-c2cc(-c3cn[nH]c3-c3ccccn3)ccn2)cc1`, the GI50 with UO-31 renal, in the assay with MDA-MB-231 breast, with NCI-H226 lung, in the assay with PC-3 prostate, in the assay with HCC-2998 colon and with DU-145 prostate was above 25 µM in each case. Besides, the GI50 was above 12.8 µM with NCI-H23 lung, above 25 µM in the assay on HL-60(TB) leukemia and above 25 µM with HS 578T breast. The TGI in the assay with UO-31 renal, in the assay on MDA-MB-231 breast, in the assay with NCI-H226 lung, in the assay on PC-3 prostate, in the assay with HCC-2998 colon and with DU-145 prostate was above 25 µM throughout. Also, the TGI with NCI-H23 lung, in the assay on HL-60(TB) leukemia and in the assay with HS 578T breast was above 25 µM throughout.

For the compound `Cc1nnc(N=Nc2c(O)[nH]c3ccccc23)[nH]c1=O`, the TGI in the assay on UO-31 renal, with MDA-MB-231 breast, in the assay on NCI-H226 lung, with PC-3 prostate, with SR leukemia and with DU-145 prostate was above 100 µM throughout. Moreover, the TGI in the assay with HL-60(TB) leukemia and in the assay on HS 578T breast was above 100 µM each time.
